Calls of active or inactive are those of the source. The calls are words filed in the database; no cut-off is given here.
How the values were obtained:
[1] = molecular target: Carbonic anhydrase 2 (Bos taurus) (UniProt P00921); experiment: Binding affinity to bovine carbonic anhydrase-2 assessed as change in melting temperature at 20 uM by differential scanning fluorimetry
[2] = Solubility of the compound in aqueous buffer at 1 mM; type: physicochemical; settings: 1000 µM
[3] = molecular target: T1, Bromodomain-containing protein 4 (Homo sapiens, UniProt O60885); experiment: Binding affinity to recombinant human N-terminal His6-tagged BRD4 bromodomain 1 (44 to 168 residues) expressed in Escherichia coli BL21(DE3) assessed as change in melting temperature at 20 uM by differential scanning fluorimetry
[4] = molecular target: T1, Bromodomain-containing protein 4; experiment: Inhibition of recombinant human N-terminal His6-tagged BRD4 by TR-FRET assay
[5] = molecular target: T1, Bromodomain-containing protein 4; experiment: Inhibition of recombinant human N-terminal His6-tagged BRD4 at 20 uM by TR-FRET assay relative to control
[6] = molecular target: T1, Bromodomain-containing protein 4; experiment: Binding affinity to recombinant human N-terminal His6-tagged BRD4 bromodomain 1 (44 to 168 residues) expressed in Escherichia coli BL21(DE3) assessed as change in melting temperature at 10 uM by differential scanning fluorimetry
[7] = molecular target: T1, Bromodomain-containing protein 4; experiment: Binding affinity to recombinant human N-terminal His6-tagged BRD4 bromodomain 1 (44 to 168 residues) expressed in Escherichia coli BL21(DE3) assessed as change in melting temperature at 40 uM by differential scanning fluorimetry
[8] = molecular target: T1, Bromodomain-containing protein 4; experiment: Binding affinity to recombinant human N-terminal His6-tagged BRD4 bromodomain 1 (44 to 168 residues) expressed in Escherichia coli BL21(DE3) assessed as increase in melting temperature at 50 to 200 uM by differential scanning fluorimetry
[9] = Solubility of the compound in DMSO at 200 mM; type: physicochemical; settings: 200000 µM

Sequence of Carbonic anhydrase 2 (Bos taurus) (P00921 2-260 limits assumed): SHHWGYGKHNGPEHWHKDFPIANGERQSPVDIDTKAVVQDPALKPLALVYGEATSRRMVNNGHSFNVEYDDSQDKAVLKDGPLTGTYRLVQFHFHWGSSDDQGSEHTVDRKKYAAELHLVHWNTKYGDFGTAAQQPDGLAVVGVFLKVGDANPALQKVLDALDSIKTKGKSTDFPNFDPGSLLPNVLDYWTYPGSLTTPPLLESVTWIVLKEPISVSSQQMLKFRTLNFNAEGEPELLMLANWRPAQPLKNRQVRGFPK

deltaTm [1] | solubility [2] | ΔTm [3] | IC50 [4] | inhibition [5] | deltaTm [6] | deltaTm [7] | Activity [8] | solubility [9] | Compound
> 0.5 K | Soluble | 0.82 °C | 60 µM | 67% | > 0.5 K | > 1 K | Active | Soluble | COc1ccc(OC)c(CCC(=O)Nc2ccc3c(c2)n(C)c(=O)n3C)c1
> 0.5 K | Soluble | 2.8 °C | – | – | > 0.5 K | > 1 K | Active | Soluble | CC1Oc2ccc(N)cc2NC1=O (centres undefined)
> 0.5 K | Soluble | 1.88 °C | 1.9 µM | 76.5% | > 0.5 K | > 1 K | Active | Soluble | Cn1c(=O)n(C)c2cc(NC(=O)c3cc4c(s3)CCC4)ccc21
> 0.5 K | Soluble | 1.39 °C | 21 µM | 63.4% | > 0.5 K | > 1 K | Active | Soluble | COCCOc1ccccc1CNc1ccc2c(c1)n(C)c(=O)n2C
> 0.5 K | Soluble | 1.2 °C | 7.4 µM | 80.5% | > 0.5 K | > 1 K | Active | Soluble | Cc1nc(-c2cccc(NC(=O)c3ccc4[nH]c(C)c(C)c4c3)c2)cs1
– | – | – | 2.5 µM | – | – | – | – | – | Cc1ccc(S(=O)(=O)Nc2ccc3c(c2)n(C)c(=O)n3C)c(C)c1
> 0.5 K | Soluble | -1.85 °C | > 100 µM | 68.2% | > 0.5 K | > 1 K | inactive | Soluble | CC1CCCC(C)N1C(=O)CSc1nc2sc3c(c2c(=O)n1C)CCCC3 (centres undefined)
> 0.5 K | Soluble | 2.01 °C | > 100 µM | 72.4% | > 0.5 K | > 1 K | Active | Soluble | Cc1ccc(C(=O)Nc2ccc3nc(N4CCCC4)sc3c2)cc1[N+](=O)[O-]
> 0.5 K | Soluble | 1.7 °C | – | Active | > 0.5 K | > 1 K | Active | Soluble | Nc1ccc2nc(N3CCCC3)sc2c1
> 0.5 K | Soluble | 1.2 °C | 3 µM | 64.4% | > 0.5 K | > 1 K | Active | Soluble | Cn1cc(NC(=O)c2occc2COc2ccccc2)ccc1=O
> 0.5 K | Soluble | -2.1 °C | – | – | > 0.5 K | > 1 K | Active | Soluble | Cc1nc2ccc(C(=O)O)cc2o1
– | – | – | 15.8 µM | – | – | – | – | – | COc1cccc(C(=O)Nc2ccc3c(c2)n(C)c(=O)n3C)c1
> 0.5 K | Soluble | 1.39 °C | 24 µM | 72.7% | > 0.5 K | > 1 K | Active | Soluble | Cc1cc2cc(NC(=O)c3sc4nc(C(F)(F)F)ccc4c3C)ccc2[nH]1
> 0.5 K | Soluble | – | – | inactive | > 0.5 K | > 1 K | Active | Soluble | Cc1nc(-c2cccc(N)c2)cs1
> 0.5 K | Soluble | 1.32 °C | 27 µM | 63.3% | > 0.5 K | > 1 K | Active | Soluble | Cc1cc2cc(NC(=O)c3ccc(Oc4ccc(C(F)(F)F)cn4)cc3)ccc2[nH]1
> 0.5 K | Soluble | 1.4 °C | – | Active | > 0.5 K | > 1 K | Active | Soluble | Cc1cc2cc(N)ccc2[nH]1
> 0.5 K | Soluble | -2.63 °C | > 100 µM | 65.9% | > 0.5 K | > 1 K | inactive | Soluble | O=C1C(=O)N(CCCOc2ccccc2)c2ccc(Cl)cc21
> 0.5 K | Soluble | 2.8 °C | – | Active | > 0.5 K | > 1 K | Active | Soluble | Cn1c(=O)n(C)c2cc(N)ccc21
> 0.5 K | Soluble | 2.1 °C | – | – | > 0.5 K | > 1 K | Active | Soluble | CC1(C)C(=O)Nc2cc(C(=O)O)ccc21

From ChEMBL document CHEMBL4118182, “Straightforward hit identification approach in fragment-based discovery of bromodomain-containing protein 4 (BRD4) inhibitors” (Bioorg Med Chem, 2018)
